Assay results as given in patent US20230017532A1 (Hoffmann-La Roche Inc., priority 2018, published 2023).
Structures can show the parent of a compound that is named as a salt.

Test system: Acinetobacter baumannii ATCC17978
Assay: Antimicrobial susceptibility testing: 90% growth inhibitory concentration (IC90) determination, Iso-Sensitest broth, OD 600 nm
Format: cell-based
Conditions: 90% growth inhibitory concentration, Acinetobacter baumannii ATCC17978, Iso-Sensitest broth, OD 600 nm over 16 h; read-out: ATCC 17978 IC90
Summary of the method: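 Growth of bacteria (~5×10^5 CFU/ml, Iso-Sensitest medium, 35±2 °C) was followed by OD at 600 nm at 20-min intervals over 16 h against a 10-point twofold compound series (e.g. 50–0.097 μM final). Concentration giving 90% inhibition in log phase was reported.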

IC90 [nM] | Structure (SMILES)
110 | CCc1cc(Nc2nccn3c(-c4ccc(OC)c(F)c4F)cnc23)ccc1C(=O)NCCNCCN [Example 64, N-(2-((2-Aminoethyl)amino)ethyl)-4-((3-(2,3-difluoro-4-methoxyphenyl)imidazo[1,2-a]pyrazin-8-yl)amino)-2-ethylbenzamide]

Same assay, conditions: Acinetobacter baumannii, ATCC17978, 16 h, 90% growth inhibitory concentration, Acinetobacter baumannii ATCC17978, Iso-Sensitest broth, OD 600 nm over 16 h; read-out: ATCC 17978 IC90

Structure (SMILES) | IC90 [nM]
Cc1cc(Nc2nccn3c(-c4ccc(OC(F)F)cc4)cnc23)ccc1C(=O)NCCOCCNC(=O)CO [Example 119, 4-[[3-[4-(difluoromethoxy)phenyl]imidazo [1,2-a]pyrazin-8-yl]amino]-N-[2-[2-[(2-hydroxyacetyl)amino]ethoxy]ethyl]-2-methylbenzamide] | 610
CC(=O)NCCOCCNC(=O)c1ccc(Nc2nccn3c(-c4ccc(OC(F)F)cc4)cnc23)cc1C [Example 98] | 420
CCc1cc(Nc2nccn3c(-c4ccc(OC)c(F)c4F)cnc23)ccc1C(=O)NCCCNCC(=O)O [Example 49, (3-(4-((3-(2,3-difluoro-4-methoxyphenyl)imidazo[1,2-a]pyrazin-8-yl)amino)-2-ethylbenzamido)propyl)glycine compound trifluoroacetate] | 380
C#CCOc1ccc(-c2cnc3c(Nc4ccc(C(=O)NCCOCCN)c(C)c4)nccn23)cc1 [Example 28, N-[2-(2-Aminoethoxy)ethyl]-2-methyl-4-[[3-(4-prop-2-ynoxyphenyl)imidazo[1,2-a]pyrazin-8-yl]amino]benzamide; formic acid] | 120
COc1ccc(-c2cnc3c(Nc4ccc(C(=O)NCCOCCN)c(CCF)c4)nccn23)c(F)c1F [Example 74, N-[2-(2-aminoethoxy)ethyl]-4-[[3-(2,3-difluoro-4-methoxy-phenyl)imidazo[1,2-a]pyrazin-8-yl]amino]-2-(2-fluoroethyl)benzamide] | 46
Cc1cc(Nc2nccn3c(-c4ccc(OC(F)F)cc4)cnc23)ccc1C(=O)NCCOCCN1C(=O)COC1=O [Example 12, 4-((3-(4-(difluoromethoxy)phenyl)imidazo[1,2-a]pyrazin-8-yl)amino)-N-(2-(2-(2,4-dioxooxazolidin-3-yl)ethoxy)ethyl)-2-methylbenzamide] | 750
Cc1cc(Nc2nccn3c(-c4ccc(OC(F)F)cc4)cnc23)ccc1C(=O)NCCOCCNC=O [Example 94, 4-[[3-[4-(difluoromethoxy)phenyl]imidazo [1,2-a]pyrazin-8-yl]amino]-N-[2-(2-formamidoethoxy)ethyl]-2-methylbenzamide] | 280
COc1ccc(-c2cnc3c(Nc4ccc(C(=O)NCCNCCO)c(C)c4)nccn23)cc1 [Example 7, N-(2-((2-hydroxyethyl)amino)ethyl)-4-((3-(4-methoxyphenyl)imidazo[1,2-a]pyrazin-8-yl)amino)-2-methylbenzamide] | 1900

Second part, the compound after the results:

IC90 [nM] | Structure (SMILES)
1500 | COc1ccc(-c2cnc3c(Nc4ccc(C(=O)N(CCC#N)CCCCNCCC#N)c(C)c4)nccn23)cc1F [Example 165, N-(2-cyanoethyl)-N-[4-(2-cyanoethyl-amino)butyl]-4-[[3-(3-fluoro-4-methoxyphenyl)imidazo[1,2-a]pyrazin-8-yl]amino]-2-methylbenzamide]
1100 | COc1ccc(-c2cnc3c(Nc4ccc(C(=O)NCCCNCC[C@H](N)C(=O)O)c(C)c4)nccn23)c(F)c1F [Example 187, (2S)-2-amino-4-[3-[[4-[[3-(2,3-difluoro-4-methoxyphenyl)imidazo[1,2-a]pyrazin-8-yl]amino]-2-methyl-benzoyl]amino]propylamino] butanoic acid]
800 | Cc1cc(Nc2nccn3c(-c4ccc(OC(F)F)cc4)cnc23)ccc1C(=O)NCCOCCN1CCNCC1 [Example 134, 4-[[3-[4-(difluoromethoxy)phenyl]imidazo [1,2-a]pyrazin-8-yl]amino]-2-methyl-N-[2-(2-piperazin-1-ylethoxy)ethyl] benzamide; hydrochloride]
2200 | Cc1cc(Nc2nccn3c(-c4ccc(OC(F)F)cc4)cnc23)ccc1C(=O)NCCOCCNC(=O)C(N)CCCCN (stereo not shown) [Example 154, N-[2-[2-(2,6-diaminohexanoyl-amino)ethoxy]ethyl]-4-[[3-[4-(difluoromethoxy)phenyl]imidazo [1,2-a]pyrazin-8-yl]amino]-2-methylbenzamide; hydrochloride]
670 | Cc1cc(Nc2nccn3c(-c4ccc(OC(F)F)cc4)cnc23)ccc1C(=O)NCCOCCNC(=O)CN(C)C [Example 127, 4-[[3-[4-(difluoromethoxy)phenyl]imidazo [1,2-a]pyrazin-8-yl]amino]-N-[2-[2-[[2-(dimethyl-amino)acetyl]amino]ethoxy]ethyl]-2-methylbenzamide]
1600 | CCc1cc(Nc2nccn3c(-c4ccc(Cl)c(F)c4F)cnc23)ccc1C(=O)NCCCNC [Example 192, 4-[[3-(4-chloro-2,3-difluorophenyl)imidazo[1,2-a]pyrazin-8-yl]amino]-2-ethyl-N-[3-(methyl-amino)propyl] benzamide; hydrochloride]
540 | CN(CCOCCN1CCNCC1)C(=O)c1ccc(Nc2nccn3c(-c4ccc(OC(F)F)cc4)cnc23)cc1Cl [Example 162, 2-chloro-4-[[3-[4-(difluoromethoxy)phenyl]imidazo [1,2-a]pyrazin-8-yl]amino]-N-methyl-N-[2-(2-piperazin-1-yl-ethoxy)ethyl] benzamide; hydrochloride]
660 | CCc1cc(Nc2nccn3c(-c4ccc(OC)c(F)c4F)cnc23)ccc1C(=O)NCCCNCC[C@H](N)C(=O)O [Example 183, (2S)-2-amino-4-[3-[[4-[[3-(2,3-difluoro-4-methoxyphenyl)imidazo[1,2-a]pyrazin-8-yl]amino]-2-ethyl-benzoyl]amino]propylamino] butanoic acid; formic acid]
570 | COc1ccc(-c2cnc3c(Nc4ccc(C(=O)N(C)CCOCCN5CCNCC5)c(Cl)c4)nccn23)cc1F [Example 163, 2-chloro-4-[[3-(3-fluoro-4-methoxyphenyl)imidazo[1,2-a]pyrazin-8-yl]amino]-N-methyl-N-[2-(2-piperazin-1-ylethoxy)ethyl] benzamide; hydrochloride]
620 | COc1ccc(-c2cnc3c(Nc4ccc(C(=O)NCCOCCNC(C)=O)c(C)c4)nccn23)cc1 [Example 120, N-[2-(2-acetamidoethoxy)ethyl]-4-[[3-(4-methoxyphenyl)imidazo[1,2-a]pyrazin-8-yl]amino]-2-methylbenzamide]
820 | COc1ccc(-c2cnc3c(Nc4ccc(C(=O)NCCOCC(=O)N5CCOC(CN)C5)c(C)c4)nccn23)cc1F (stereo not shown) [Example 135, N-[2-[2-[2-(aminomethyl)morpholin-4-yl]-2-oxoethoxy]ethyl]-4-[[3-(3-fluoro-4-methoxyphenyl)imidazo[1,2-a]pyrazin-8-yl]amino]-2-methylbenzamide; hydrochloride]
780 | Cc1cc(Nc2nccn3c(-c4ccc(OC(F)F)cc4)cnc23)ccc1C(=O)NCCOCCS(C)(=O)=O [Example 132, 4-[[3-[4-(difluoro-methoxy)phenyl]imidazo [1,2-a]pyrazin-8-yl]amino]-2-methyl-N-[2-(2-methylsulfonyl-ethoxy)ethyl] benzamide]
2300 | N#CCOc1ccc(-c2cnc3c(Nc4ccc(C(=O)NCCOCCN5CCNC(C(=O)O)C5)c(Cl)c4)nccn23)c(F)c1F (stereo not shown) [Example 177, 4-[2-[2-[[2-chloro-4-[[3-[4-(cyanomethoxy)-2,3-difluorophenyl]imidazo[1,2-a]pyrazin-8-yl]amino]benzoyl]amino]ethoxy]ethyl]piperazine-2-carboxylic acid; formic acid]
